In ChEMBL document CHEMBL4411307, “N,N'-diaryl-bishydrazones in a biphenyl platform: Broad spectrum antifungal agents” (Eur J Med Chem, 2019):
Values after ≈ are worked out from the molar mass of the structure shown. Active and inactive are the calls of the source. The rule behind the calls is not given here.

How the values were obtained:
[1] = system: Listeria monocytogenes; experiment: Antibacterial activity against Listeria monocytogenes; assay type: functional, organism-based
[2] = system: Staphylococcus aureus; experiment: Antibacterial activity against methicillin-resistant Staphylococcus aureus; assay type: functional, organism-based
[3] = system: Enterococcus; experiment: Antibacterial activity against vancomycin-resistant Enterococcus; assay type: functional, organism-based
[4] = system: Candida albicans; experiment: Antifungal activity against fluconazole/ITC-resistant Candida albicans ATCC 10231 measured after 48 hrs by CLSI M27-A3 protocol based method; assay type: functional; settings: ATCC 10231, 48 h
[5] = system: Candida albicans; experiment: Antifungal activity against fluconazole/ITC-resistant Candida albicans ATCC 64124 measured after 48 hrs by CLSI M27-A3 protocol based method; assay type: functional; settings: ATCC 64124, 48 h
[6] = system: Candida albicans; experiment: Antifungal activity against fluconazole/ITC-susceptible Candida albicans ATCC MYA-2876 measured after 48 hrs by CLSI M27-A3 protocol based method; assay type: functional; settings: ATCC MYA-2876, 48 h
[7] = system: Candida albicans; experiment: Antifungal activity against fluconazole/ITC-resistant Candida albicans ATCC 90819 measured after 48 hrs by CLSI M27-A3 protocol based method; assay type: functional; settings: ATCC 90819, 48 h
[8] = system: Candida albicans; experiment: Antifungal activity against fluconazole/ITC-susceptible Candida albicans ATCC MYA-2310 measured after 48 hrs by CLSI M27-A3 protocol based method; assay type: functional; settings: ATCC MYA-2310, 48 h
[9] = system: Candida albicans; experiment: Antifungal activity against fluconazole/ITC-resistant Candida albicans ATCC MYA-1237 measured after 48 hrs by CLSI M27-A3 protocol based method; assay type: functional; settings: ATCC MYA-1237, 48 h
[10] = system: Candida albicans; experiment: Antifungal activity against fluconazole/ITC-resistant Candida albicans ATCC MYA-1003 measured after 48 hrs by CLSI M27-A3 protocol based method; assay type: functional; settings: ATCC MYA-1003, 48 h
[11] = system: Nakaseomyces glabratus; experiment: Antifungal activity against Candida glabrata ATCC 2001 measured after 48 hrs by CLSI M27-A3 protocol based method; assay type: functional; settings: CBS 138, 48 h
[12] = system: Pichia kudriavzevii; experiment: Antifungal activity against Candida krusei ATCC 6258 measured after 48 hrs by CLSI M27-A3 protocol based method; assay type: functional; settings: ATCC 6258, 48 h
[13] = system: Candida parapsilosis; experiment: Antifungal activity against Candida parapsilosis ATCC 22019 measured after 48 hrs by CLSI M27-A3 protocol based method; assay type: functional; settings: Lodderomyces parapsilosis, ATCC 22019, 48 h
[14] = system: Aspergillus flavus; experiment: Antifungal activity against Aspergillus flavus ATCC MYA-3631 measured after 48 hrs by CLSI M38-A2 protocol based method; assay type: functional; settings: ATCC MYA-3631, 48 h
[15] = system: Aspergillus nidulans; experiment: Antifungal activity against Aspergillus nidulans ATCC 38163 measured after 48 hrs by CLSI M38-A2 protocol based method; assay type: functional; settings: ATCC 38163, 48 h
[16] = system: Aspergillus terreus; experiment: Antifungal activity against Aspergillus terreus ATCC MYA-3633 measured after 48 hrs by CLSI M38-A2 protocol based method; assay type: functional; settings: ATCC MYA-3633, 48 h
[17] = system: A549; experiment: Cytotoxicity against human A549 cells after 24 hrs by resazurin based assay; assay type: cell-based; settings: a549, 24 h
[18] = system: BEAS-2B; experiment: Cytotoxicity against human BEAS2B cells after 24 hrs by resazurin based assay; assay type: cell-based
[19] = Selectivity index, ratio of CC50 for human A549 cells to MIC for fluconazole/ITC-resistant Candida albicans ATCC 10231; assay type: toxicity; settings: read-out: Selectivity Index
[20] = Selectivity index, ratio of CC50 for human A549 cells to MIC for fluconazole/ITC-resistant Candida albicans ATCC 64124; assay type: toxicity; settings: read-out: Selectivity Index
[21] = Selectivity index, ratio of CC50 for human A549 cells to MIC for fluconazole/ITC-susceptible Candida albicans ATCC MYA-2876; assay type: toxicity; settings: read-out: Selectivity Index
[22] = Selectivity index, ratio of CC50 for human A549 cells to MIC for fluconazole/ITC-resistant Candida albicans ATCC 90819; assay type: toxicity; settings: read-out: Selectivity Index
[23] = Selectivity index, ratio of CC50 for human A549 cells to MIC for fluconazole/ITC-susceptible Candida albicans ATCC MYA-2310; assay type: toxicity; settings: read-out: Selectivity Index
[24] = Selectivity index, ratio of CC50 for human A549 cells to MIC for fluconazole/ITC-resistant Candida albicans ATCC MYA-1237; assay type: toxicity; settings: read-out: Selectivity Index
[25] = Selectivity index, ratio of CC50 for human A549 cells to MIC for fluconazole/ITC-resistant Candida albicans ATCC MYA-1003; assay type: toxicity; settings: read-out: Selectivity Index
[26] = Selectivity index, ratio of CC50 for human A549 cells to MIC for Candida glabrata ATCC 2001; assay type: toxicity; settings: read-out: Selectivity Index
[27] = Selectivity index, ratio of CC50 for human A549 cells to MIC for Candida krusei ATCC 6258; assay type: toxicity; settings: read-out: Selectivity Index
[28] = Selectivity index, ratio of CC50 for human A549 cells to MIC for Candida parapsilosis ATCC 22019; assay type: toxicity; settings: read-out: Selectivity Index
[29] = Selectivity index, ratio of CC50 for human A549 cells to MIC for Aspergillus flavus ATCC MYA-3631; assay type: toxicity; settings: read-out: Selectivity Index
[30] = Selectivity index, ratio of CC50 for human A549 cells to MIC for Aspergillus nidulans ATCC 38163; assay type: toxicity; settings: read-out: Selectivity Index
[31] = Selectivity index, ratio of CC50 for human A549 cells to MIC for Aspergillus terreus ATCC MYA-3633; assay type: toxicity; settings: read-out: Selectivity Index
[32] = Hemolytic activity in mouse RBC at […] after 1 hr relative to control; assay type: ADME, cell-based, Erythrocyte; settings: red blood cells (erythrocytes), read-out: Activity; also: tested at 0.48 µg/mL
[33] = Hemolytic activity in mouse RBC at […] ug/ml after 1 hr relative to control; assay type: ADME, cell-based, Erythrocyte; settings: red blood cells (erythrocytes), read-out: Activity
[34] = Hemolytic activity in mouse RBC at 1.95 ug/ml after 1 hr relative to control; assay type: ADME, cell-based, Erythrocyte; settings: red blood cells (erythrocytes), read-out: Activity
[35] = Hemolytic activity in mouse RBC at 3.9 ug/ml after 1 hr relative to control; assay type: ADME, cell-based, Erythrocyte; settings: red blood cells (erythrocytes), read-out: Activity
[36] = Hemolytic activity in mouse RBC at 7.8 ug/ml after 1 hr relative to control; assay type: ADME, cell-based, Erythrocyte; settings: red blood cells (erythrocytes), read-out: Activity
[37] = Hemolytic activity in mouse RBC at 31.3 ug/ml after 1 hr relative to control; assay type: ADME, cell-based, Erythrocyte; settings: red blood cells (erythrocytes), read-out: Activity
[38] = Hemolytic activity in mouse RBC at 62.5 ug/ml after 1 hr relative to control; assay type: ADME, cell-based, Erythrocyte; settings: red blood cells (erythrocytes), read-out: Activity
[39] = Selectivity index, ratio of compound concentration showing <20 to <25% hemolysis in mouse RBC to MIC for fluconazole/ITC-resistant Candida albicans ATCC 10231; assay type: toxicity; settings: red blood cells (erythrocytes), read-out: Selectivity Index
[40] = Selectivity index, ratio of compound concentration showing <20 to <25% hemolysis in mouse RBC to MIC for fluconazole/ITC-resistant Candida albicans ATCC 64124; assay type: toxicity; settings: red blood cells (erythrocytes), read-out: Selectivity Index
[41] = Selectivity index, ratio of compound concentration showing <20 to <25% hemolysis in mouse RBC to MIC for fluconazole/ITC-susceptible Candida albicans ATCC MYA-2876; assay type: toxicity; settings: red blood cells (erythrocytes), read-out: Selectivity Index
[42] = Selectivity index, ratio of compound concentration showing <20 to <25% hemolysis in mouse RBC to MIC for fluconazole/ITC-resistant Candida albicans ATCC 90819; assay type: toxicity; settings: red blood cells (erythrocytes), read-out: Selectivity Index
[43] = Selectivity index, ratio of compound concentration showing <20 to <25% hemolysis in mouse RBC to MIC for fluconazole/ITC-susceptible Candida albicans ATCC MYA-2310; assay type: toxicity; settings: red blood cells (erythrocytes), read-out: Selectivity Index
[44] = Selectivity index, ratio of compound concentration showing <20 to <25% hemolysis in mouse RBC to MIC for fluconazole/ITC-resistant Candida albicans ATCC MYA-1237; assay type: toxicity; settings: red blood cells (erythrocytes), read-out: Selectivity Index
[45] = Selectivity index, ratio of compound concentration showing <20 to <25% hemolysis in mouse RBC to MIC for fluconazole/ITC-resistant Candida albicans ATCC MYA-1003; assay type: toxicity; settings: red blood cells (erythrocytes), read-out: Selectivity Index
[46] = Selectivity index, ratio of compound concentration showing <20 to <25% hemolysis in mouse RBC to MIC for Candida glabrata ATCC 2001; assay type: toxicity; settings: red blood cells (erythrocytes), read-out: Selectivity Index
[47] = Selectivity index, ratio of compound concentration showing <20 to <25% hemolysis in mouse RBC to MIC for Candida krusei ATCC 6258; assay type: toxicity; settings: red blood cells (erythrocytes), read-out: Selectivity Index
[48] = Selectivity index, ratio of compound concentration showing <20 to <25% hemolysis in mouse RBC to MIC for Candida parapsilosis ATCC 22019; assay type: toxicity; settings: red blood cells (erythrocytes), read-out: Selectivity Index
[49] = Selectivity index, ratio of compound concentration showing <20 to <25% hemolysis in mouse RBC to MIC for Aspergillus flavus ATCC MYA-3631; assay type: toxicity; settings: red blood cells (erythrocytes), read-out: Selectivity Index
[50] = Selectivity index, ratio of compound concentration showing <20 to <25% hemolysis in mouse RBC to MIC for Aspergillus nidulans ATCC 38163; assay type: toxicity; settings: red blood cells (erythrocytes), read-out: Selectivity Index
[51] = Selectivity index, ratio of compound concentration showing <20 to <25% hemolysis in mouse RBC to MIC for Aspergillus terreus ATCC MYA-3633; assay type: toxicity; settings: red blood cells (erythrocytes), read-out: Selectivity Index

C(=N\Nc1ccccc1)/c1ccc(-c2cccc(/C=N/Nc3ccccc3)c2)cc1
Activity [1]: inactive | Activity [2]: inactive | Activity [3]: inactive | MIC [4]: 1.95 µg/mL (≈ 4.99 µM) | MIC [5]: 31.3 µg/mL (≈ 80.2 µM) | MIC [6]: 31.3 µg/mL (≈ 80.2 µM) | MIC [7]: 31.3 µg/mL (≈ 80.2 µM) | MIC [8]: 31.3 µg/mL (≈ 80.2 µM) | MIC [9]: 31.3 µg/mL (≈ 80.2 µM) | MIC [10]: 3.9 µg/mL (≈ 9.99 µM) | MIC [11]: > 31.3 µg/mL | MIC [12]: 7.8 µg/mL (≈ 20 µM) | MIC [13]: > 31.3 µg/mL | MIC [14]: 3.9 µg/mL (≈ 9.99 µM) | MIC [15]: 1.95 µg/mL (≈ 4.99 µM) | MIC [16]: 15.6 µg/mL (≈ 39.9 µM) | CC50 [17]: > 31 µg/mL | CC50 [18]: > 31 µg/mL | selectivity ratio [19]: 16 | selectivity ratio [20]: 1 | selectivity ratio [21]: 1 | selectivity ratio [22]: 1 | selectivity ratio [23]: 1 | selectivity ratio [24]: 1 | selectivity ratio [25]: 4 | selectivity ratio [26]: 1 | selectivity ratio [27]: 4 | selectivity ratio [28]: 1 | selectivity ratio [29]: 8 | selectivity ratio [30]: 16 | selectivity ratio [31]: 2 | hemolysis at 1 h, […] [32]: 0% | hemolysis at 1 h, 15.6 ug/ml ([33]; at 15.6 µg/mL): 14.1% | hemolysis at 1 h, 0.975 ug/ml [33]: 0% | hemolysis at 1 h, 1.95 ug/ml [34]: 3.5% | hemolysis at 1 h, 3.9 ug/ml [35]: 1.5% | hemolysis at 1 h, 7.8 ug/ml [36]: 8.5% | hemolysis at 1 h, 31.3 ug/ml [37]: 16.7% | hemolysis at 1 h, 62.5 ug/ml [38]: 23.6% | selectivity ratio [39]: 1 to 32 | selectivity ratio [40]: 1 to 32 | selectivity ratio [41]: 1 to 32 | selectivity ratio [42]: 1 to 32 | selectivity ratio [43]: 1 to 32 | selectivity ratio [44]: 1 to 32 | selectivity ratio [45]: 1 to 32 | selectivity ratio [46]: 1 to 32 | selectivity ratio [47]: 1 to 32 | selectivity ratio [48]: 1 to 32 | selectivity ratio [49]: 1 to 32 | selectivity ratio [50]: 1 to 32 | selectivity ratio [51]: 1 to 32
